Where a SMILES comes first, the peptide text is derived from it. [ ]: non-standard residue; d: D form. dLac(3-vinyl) = C=CC[C@@H](O)C(=O)O; NMeV = CN[C@H](C(=O)O)C(C)C; NMeA = CN[C@@H](C)C(=O)O; βAla = NCCC(=O)O
Molecular target: T1, BmTMEM214 (BmTEME214) (Bombyx mori, UniProt A0A8R1WLS5)
T1 construct: immobilised on biosensor
T1 sequence (A0A8R1WLS5 1-663): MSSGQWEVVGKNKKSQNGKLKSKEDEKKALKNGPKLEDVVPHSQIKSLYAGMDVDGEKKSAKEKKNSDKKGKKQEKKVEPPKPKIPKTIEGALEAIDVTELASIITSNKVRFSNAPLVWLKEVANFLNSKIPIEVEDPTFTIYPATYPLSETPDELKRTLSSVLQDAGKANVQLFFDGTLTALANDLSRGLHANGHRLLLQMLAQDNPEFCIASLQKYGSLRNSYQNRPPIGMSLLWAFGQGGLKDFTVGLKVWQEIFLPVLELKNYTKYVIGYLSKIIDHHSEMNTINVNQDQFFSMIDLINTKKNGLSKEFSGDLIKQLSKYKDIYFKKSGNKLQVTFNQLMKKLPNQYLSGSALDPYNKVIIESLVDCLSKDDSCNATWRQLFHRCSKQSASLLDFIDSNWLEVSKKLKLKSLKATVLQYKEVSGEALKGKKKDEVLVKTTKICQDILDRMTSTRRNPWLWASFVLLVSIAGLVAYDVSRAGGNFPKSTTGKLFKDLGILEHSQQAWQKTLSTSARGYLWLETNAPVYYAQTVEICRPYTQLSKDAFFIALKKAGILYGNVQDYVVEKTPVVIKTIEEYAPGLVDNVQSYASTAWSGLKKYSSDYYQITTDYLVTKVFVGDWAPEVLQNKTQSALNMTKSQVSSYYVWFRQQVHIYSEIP
Experiment: bio-layer interferometry, immobilised protein
Format: binding
Text: bio-layer interferometry, immobilised protein on BmTMEM214 (BmTEME214)

C=CC[C@H]1OC(=O)CCNC(=O)[C@H](C)N(C)C(=O)[C@H](C(C)C)N(C)C(=O)[C@H]([C@@H](C)CC)NC(=O)[C@@H]2CCCN2C1=O [DA, Destruxin A] (cyclo(I[NMeV][NMeA][βAla][dLac(3-vinyl)]P))
Kd: 286 nM
